According to US9572862B2, “Methods for promoting lipolysis and oxidation in liver and adipose tissue using catestatin” (The Regents of the University of California, priority 2012, dated 2017):
“Also recorded” adds a separate entry of the source. No end group written: not given here.

Tests used:
HFD-fed Chga-KO mice = assay: Peptide supplementation to HFD-fed Chga-KO mice (insulin sensitivity); type: in vivo; conditions: HFD (60%)-fed Chga-KO mice
db/db mice = assay: CST treatment of diabetic db/db mice; type: in vivo
Source text: FIG. 15. […] Figures in parentheses indicate number of animals.

[1] = test system: adipose tissue explants from Ob/Ob mice; assay: Lipolysis and fatty acid oxidation in adipose explants of Ob/Ob mice; type: cell-based
Description: FIG. 8. Lipolysis and fatty acid oxidation in the adipose tissue explants of DIO and Ob/Ob mice after treatment with saline or CST for 16 days. Explants were incubated with saline or leptin (1 μM) for 3 hr and the concentrations of glycerol (A&C) and NEFA (B&D) released into the media from DIO (A&B) and Ob/Ob (C&D) explants were determined as a measure of lipolysis. Homogenates of the explants from DIO (E) and Ob/Ob […] were used to determine their capacity for oxidation of U-^14C-palmitate in response to the treatment with saline, CST, leptin and CST+leptin. The ^14CO2 released was captured and counted as the measure of fatty acid oxidation.
(§1) Adipose tissue explants were prepared as described (42). Epididymal fat pads from 12 hr fasted WT, Chga-KO, DIO and Ob/Ob mice with or without CST treatment were collected in Kreb-Ringer-phosphate (KRP) buffer containing 10 mM Hepes and 0.5% BSA. Tissues were minced to 1-2 mm size and treated with 100 nM CST, 1 μM leptin, or saline for 30 min (for signaling analysis) or 3 hr (for lipolysis and β-oxidation assays). Explants were also treated acutely with CST, leptin, a combination, or saline. At the end, incubation media were saved for analysis of glycerol and fatty acid release. Explants were washed prior to homogenization for immunoblotting and analysis of fatty acid oxidation.
Oxidation of radiolabeled palmitate in the homogenates of adipose tissue explants as described previously (45). For oxidation studies of cultured cells, HepG2 (hepatocytes) and 3T3-L1 preadipocytes were obtained from ATCC and cultured following supplier's protocol. Confluent 3T3-L1 cultures were differentiated into adipocytes by treating with a cocktail of dexamethasone (100 nM), IBMX ([…]) and insulin (100 nM) for 10 days. Media were then switched to serum-free DMEM with 1% BSA. Hepatocytes were assayed for lipogenesis and fat oxidation in response to CST treatment. Serum-free cultures were treated with CST (100 nM) for 24 hr followed by a 2 hr incubation with U^14C-palmitate (0.5 μCi/ml). Fatty acid oxidation in cells was determined by modifying a published method (46). Specifically, the culture media in 24-well plates were acidified with 10% HClO4 after incubation with the labeled fatty acid and immediately covered with a thick filter paper sheet (cut to size) soaked in 2 N NaOH and placed underneath the plastic lid. The whole plate was sealed with parafilm. After further incubation for 2 hr, the filter paper sheet was marked as circles around the rim of the wells and then the circles were excised. The filter discs were counted to determine the amount of ^14CO2 absorbed in the papers. Cells in the culture wells were lysed in 1 N NaOH and protein content was assayed using Folin's reagent (BioRad, Hercules, Calif.).

[2] = test system: AMPK and Stat3 phosphorylation; assay: AMPK and Stat3 signaling in adipose tissue explants from Chga-KO mice; type: cell-based
Description: FIG. 6. Regulation of AMPK and Stat3 signaling by CST in adipose tissue explants. Explants from Chga-KO mice were treated with saline or CST (100 nM for 30 min) and immunoblotted for pAMPK and AMPK (A). Adipose explants from WT and Chga-KO mice were immunoblotted for pAMPK and AMPK after treatment with saline or leptin (1 μM) for 30 min (B). pAMPK and AMPK (C) and pStat3 and Stat3 (D) signaling in adipose explants from WT and Chga-KO mice after treatment for 30 min with saline, CST (100 nM), leptin (1 μM) or leptin plus CST.
as §1
Adipose tissue explants after treatments ex vivo and tissues from mice treated in vivo were homogenized in a buffer containing phosphatase and protease inhibitors (20 mM Tris/HCl (pH 7.5), 250 mM sucrose, 2 mM EDTA, 2 mM EGTA, 2 mM Na3VO4, 10 mM NaF, 2 mM Na4P2O7, 1 mM phenylmethylsulfonyl fluoride, 20 μg/ml leupeptin, 10 μg/ml aprotinin, and 1 μM LR-microcystin) as described (38,44). Homogenates were subjected to SDS-PAGE and immunoblotted. Primary antibodies for AMPK and Stat3 were from Cell Signaling Technology (Beverly, Mass.). The chemiluminescence kit was from Pierce (Rockford, Ill.).

3T3-L1 adipocytes = assay: cAMP production in 3T3-L1 adipocytes; type: cell-based; conditions: CST 100 nM, ISO 10 μM, 10 min
CST-KO mice = assay: CST supplementation in NCD-fed CST-KO mice; type: in vivo
Description: FIG. 13. Changes in biochemical and physiological parameters in NCD-fed CST-KO mice after CST (5 μg/g BW) supplementation. […] Figures in parentheses indicate number of animals.

[3] = CST-KO mice, CST 5 μg/g BW for 8 days

SSMKLSFRARAYGFRGPGPQL [CST]
insulin sensitivity (GTT) (HFD-fed Chga-KO mice): made HFD-fed Chga-KO mice sensitive to insulin | glucose tolerance (GTT) (db/db mice; CST 10 μg/g/day for 14 days): improvement in glucose tolerance; also recorded: improved glucose tolerance | C-peptide level (db/db mice; CST 14 days): without lowering C-peptide levels; also recorded: No change in C-Peptide level | C-peptide/Insulin molar ratio (db/db mice; CST 14 days): increased; also recorded: higher C-Peptide/insulin molar ratio | plasma insulin level (db/db mice; CST 14 days (untreated db/db 20-30 nM)): 14 to 18 nM | palmitate oxidation [1]: not CST alone | lipolysis (glycerol and NEFA release) ([1]; CST in vivo 16 days, leptin 1 μM ex vivo 3 hr): did not influence lipolysis | Stat3 phosphorylation, CST alone [2]: lack of CST stimulation of Stat3 phosphorylation | leptin's ability to stimulate the phosphorylation of AMPK ([2]; CST plus leptin): restored | leptin's ability to stimulate the phosphorylation of Stat3 ([2]; CST plus leptin): restored | AMPK phosphorylation, CST alone ([2]; acute CST 100 nM 30 min): stimulated AMPK phosphorylation; also recorded: significantly stimulated pAMPK signaling | cAMP production (3T3-L1 adipocytes): not by CST | plasma NEFA (CST-KO mice; [3]): reduced; also recorded: decreased | plasma TG (CST-KO mice; [3]): reduced; also recorded: decreased | plasma catecholamine (CST-KO mice; [3]): reduced; also recorded: normalized high plasma catecholamines | plasma glycerol (CST-KO mice; [3]): increase; also recorded: increased plasma glycerol | plasma insulin (CST-KO mice; [3]): reduced; also recorded: normalized the plasma insulin concentration to the WT level; also recorded: normalized hyperinsulinemia | plasma leptin (CST-KO mice; [3]): reduced; also recorded: normalized hyperleptinemia | hypertensive phenotype (CST-KO mice; CST-KO mice, CST supplementation): normalized | glucose tolerance by IP-GTT (CST-KO mice; NCD-fed CST-KO mice, CST 5 μg/g BW for 8 days): restored glucose tolerance; also recorded: improved glucose tolerance; also recorded: improved insulin resistance | insulin sensitivity / glucose tolerance by IP-ITT (CST-KO mice; NCD-fed CST-KO mice, CST supplementation): improved insulin sensitivity; also recorded: restored glucose tolerance; also recorded: improved insulin resistance
